We go through 2 molecules from patent US4182889A, “Process for preparing 10-methyl-2,9-dioxatricyclo[4,3,1,0^3,7 ] decanes” (Kali-Chemie Pharma GmbH, priority 1977, dated 1980).

Counter-ions that a name gives are not always drawn.

Data set [1] in a line: hexobarbital induced sleep prolongation in mice. In kind it is in vivo. As to conditions: white mice; oral dosages starting at 10 mg/kg; dose dependent. The procedure:
For example, they effect a significant increase of the duration of hexobarbital induced sleep in mice upon oral administration of from 1 to 100 mg/kg body weight. Electroencephalographical tests in rats show an increase of the classical and the paradoxical sleep phases upon oral administration of from 1 to 100 mg/kg body weight.
(§1) The hydrochloride of formula II, test substance number 1973, and the hydrogentartrate of formula II, test substance number 2961, have been used for pharmacological testing.

A short description of data set [2]: anticonvulsive activity in the screening in white mice. In kind it is in vivo. Conditions: oral dosages starting at 10 mg/kg.
Excerpt: as §1

The nature of another data set: toxicity in mice (LD50). As to conditions: mouse, in vivo.

Consider `COC1OC2OC3(CN4CCCCC4)C(O)CC(C2C)C13` (stereo not drawn) [test substance number 1973, 3-piperidinomethyl-4β-hydroxy-8-methoxy-10β-methyl-2,9-dioxatricyclo[4,3,1,0^3,7] decane hydrochloride], for which, in data set [1], the “increase of the duration of hexobarbital induced sleep” value is listed as “remarkable increase”. The anticonvulsive activity result in data set [2] is “do not exhibit any anticonvulsive activity”. Besides, the values for the LD50 in “toxicity in mice (LD50)” (ip) and in the data set “toxicity in mice (LD50)” (po) were 406 mg/kg and 1140 mg/kg, respectively.
As to `COC1OC2OC3(CN4CCCCC4)C(O)CC(C2C)C13` (stereo not drawn) [test substance number 2961, 3-piperidinomethyl-4β-hydroxy-8-methoxy-10β-methyl-2,9-dioxatricyclo-[4,3,1,0^3,7] decane hydrogentartrate], in data set [1], the “increase of the duration of hexobarbital induced sleep” value was “remarkable increase”. For the same molecule, the anticonvulsive activity result in data set [2] was “do not exhibit any anticonvulsive activity”.

A word on the LD50: it is the dose expected to kill half of the subjects tested. A high value points to lower toxicity.
